Values quoted from earlier work, collected in publication PMC8583936, “Machine Learning Assisted Approach for Finding Novel High Activity Agonists of Human Ectopic Olfactory Receptors” (International Journal of Molecular Sciences, 2021).
Counter-ions that a name gives are not always drawn. Like-named read-outs stand apart in the source and are kept apart here.

Legend:
OR2W1 = target: T1, OR2W1 (Homo sapiens, UniProt Q9Y3N9); conditions: cited from earlier work
T1 sequence (Q9Y3N9 1-320): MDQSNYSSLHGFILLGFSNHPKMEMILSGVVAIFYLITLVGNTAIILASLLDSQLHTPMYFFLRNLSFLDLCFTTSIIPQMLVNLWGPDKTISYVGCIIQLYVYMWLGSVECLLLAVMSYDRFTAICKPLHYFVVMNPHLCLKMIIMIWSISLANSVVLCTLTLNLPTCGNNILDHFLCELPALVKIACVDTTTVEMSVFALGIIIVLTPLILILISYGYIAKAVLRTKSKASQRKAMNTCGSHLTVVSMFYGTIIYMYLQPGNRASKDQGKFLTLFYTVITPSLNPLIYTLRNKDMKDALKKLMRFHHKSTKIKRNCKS

OR1A1 = target: T2, OR1A1 (Homo sapiens, UniProt Q9P1Q5); conditions: cited from earlier work
T2 sequence (Q9P1Q5 1-309): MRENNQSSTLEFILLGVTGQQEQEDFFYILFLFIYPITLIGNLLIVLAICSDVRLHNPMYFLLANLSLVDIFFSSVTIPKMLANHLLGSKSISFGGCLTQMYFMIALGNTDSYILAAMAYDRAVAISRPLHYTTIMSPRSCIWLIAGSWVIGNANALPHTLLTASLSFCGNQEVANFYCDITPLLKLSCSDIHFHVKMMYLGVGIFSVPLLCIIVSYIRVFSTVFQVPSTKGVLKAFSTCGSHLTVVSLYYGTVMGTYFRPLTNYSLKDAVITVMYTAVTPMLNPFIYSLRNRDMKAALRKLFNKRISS

[1] = Table S2, ref Supplement references [2]-[12] as printed after each odorant name
[2] = Table S1, ref Supplement references [1]-[9] as printed after each odorant name

| SMILES | Class (agonist / non-agonist / antagonist / conflicting info.) for OR2W1 (OR2W1; [1]) | Class (agonist / non-agonist / conflicting info.) for OR1A1 (OR1A1; [2]) | Class (agonist / non-agonist / antagonist / conflicting info.) for OR2W1 (OR2W1) | Class (agonist / non-agonist / conflicting info.) for OR1A1 (OR1A1) |
| --- | --- | --- | --- | --- |
| CCc1ccc(O)c(OC)c1 [2-Methoxy-4-ethylphenol] | Non-agonist | Non-agonist |  |  |
| COc1ccc(C)cc1O [2-Methoxy-5-methylphenol] | Non-agonist | Non-agonist |  |  |
| Cc1occc1S [2-Methyl-3-furanthiol] | Non-agonist | Non-agonist |  |  |
| CCC(S)C(C)CO (centres unmarked) [2-Methyl-3-sulfanylpentan-1-ol] | Non-agonist | Non-agonist |  |  |
| CCC(C)COC(C)=O (centres unmarked) [2-Methylbutyl acetate] | Non-agonist | Non-agonist |  |  |
| O=C(O)Cc1ccccc1 [2-Phenylacetic acid] |  |  | Non-agonist | Non-agonist |
| CC(=O)OCCc1ccccc1 [2-Phenylethyl acetate] | Agonist | Agonist |  |  |
| CCC(=O)C(C)S (centres unmarked) [2-Sulfanylpentan-3-one] | Non-agonist | Non-agonist |  |  |
| CC(=O)c1cnccn1 [2-acetylpyrazine] | Non-agonist | Non-agonist |  |  |
| CCC(C)=O [2-butanone] |  |  | Non-agonist | Non-agonist |
| O=C1Cc2ccccc2O1 [2-coumaranone] | Non-agonist | Non-agonist |  |  |
| CCCCCCC/C=C/C=O [2-decenal, (2e)-] | Non-agonist | Non-agonist |  |  |
| CCCCCC/C=C/C=O [2-enonenal] | Non-agonist | Non-agonist |  |  |
| CCOc1nccs1 [2-ethoxythiazole] | Agonist | Non-agonist |  |  |
| CCC1(O)C2(C)CCC(C2)C1(C)C (centres unmarked) [2-ethylfenchol] |  | Conflicting info. | Conflicting info. |  |
| CCCCCC(C)O (centres unmarked) [2-heptanol] | Agonist | Non-agonist |  |  |
| CCCCCC(C)=O [2-heptanone] | Conflicting info. | Conflicting info. |  |  |
| CCCCC(C)=O [2-hexanone] |  |  | Agonist | Non-agonist |
| CCC/C=C/C=O [2-hexenal, (2e)-] | Non-agonist | Non-agonist |  |  |
| COc1nccnc1CC(C)C [2-isobutyl-3-methoxypyrazine] | Non-agonist | Non-agonist |  |  |
| COc1nccnc1C(C)C [2-isopropyl-3-methoxypyrazine] | Non-agonist | Non-agonist |  |  |
| COc1cc(C)ccc1O [2-methoxy-4-methylphenol] | Non-agonist | Non-agonist |  |  |
| CCCc1ccc(O)c(OC)c1 [2-methoxy-4-propylphenol] |  |  | Non-agonist | Non-agonist |

| SMILES | Class (agonist / non-agonist / antagonist / conflicting info.) for OR2W1 (OR2W1; [1]) | Class (agonist / non-agonist / conflicting info.) for OR1A1 (OR1A1; [2]) | Class (agonist / non-agonist / antagonist / conflicting info.) for OR2W1 (OR2W1) | Class (agonist / non-agonist / conflicting info.) for OR1A1 (OR1A1) |
| --- | --- | --- | --- | --- |
| CCC(C)CO (centres unmarked) [2-methyl-1-butanol] |  |  | Non-agonist | Non-agonist |
| CCC(C)C=O (centres unmarked) [2-methylbutyraldehyde] | Non-agonist | Non-agonist |  |  |
| Cc1ccccc1O [2-methylphenol] |  |  | Non-agonist | Non-agonist |
| CCCCCCCC(C)=O [2-nonanone] | Agonist | Conflicting info. |  |  |
| CCCCCC/C=C\C=O [2-nonenal, (2z)-] | Non-agonist | Non-agonist |  |  |
| CCCCCCC(C)=O [2-octanone] | Agonist | Agonist |  |  |
| CCCCC/C=C\C=O [2-octenal, (2z)-] | Non-agonist | Non-agonist |  |  |
| CCCC(C)=O [2-pentanone] | Non-agonist | Non-agonist |  |  |
| CCCCCc1ccccn1 [2-pentylpyridine] | Agonist | Agonist |  |  |
| SCCc1ccccc1 [2-phenylethanethiol] | Agonist | Agonist |  |  |
| OCCc1ccccc1 [2-phenylethanol] | Non-agonist | Non-agonist |  |  |
| CCC(=O)C1=NCCC1 [2-propionylpyrroline] | Non-agonist | Non-agonist |  |  |
| CCCCCCCCC=CC=O [2-undecenal] | Non-agonist | Non-agonist |  |  |
| CCC(=O)C(=O)CC [3,4-hexanedione] |  |  | Agonist | Non-agonist |
| CC/C=C\CCOC(C)=O [3-Hexenyl acetate, (3Z)-] | Non-agonist | Non-agonist |  |  |
| CCC(S)C(C)=O (centres unmarked) [3-Mercapto-2-pentanone] | Non-agonist | Non-agonist |  |  |
| CC(C)(S)CCOC=O [3-Mercapto-3-methylbutyl formate] | Non-agonist | Non-agonist |  |  |
| CCCC(S)CCOC(C)=O (centres unmarked) [3-Mercaptohexyl acetate] | Agonist | Agonist |  |  |
| CC(C)CCO [3-Methyl-1-butanol] | Non-agonist | Non-agonist |  |  |
| Cc1c[nH]c2ccccc12 [3-Methyl-1H-indole] | Non-agonist | Non-agonist |  |  |
| CCCCCC(=O)C(C)C(C)=O (centres unmarked) [3-Methyl-2,4-nonanedione] | Non-agonist | Agonist |  |  |
| CCCC(=O)C(C)CC (centres unmarked) [3-Methylheptan-4-one] | Non-agonist | Non-agonist |  |  |
| O=C(O)CCc1ccccc1 [3-Phenyl propionic acid] |  |  | Non-agonist | Non-agonist |
